From patent publication US7781423B2, “Compounds to promote regeneration of bone marrow” (priority 2007, dated 2010)

System: human bone marrow-derived mesenchymal stem cells
Assay: Proliferation of mesenchymal stem cells in the presence of 2% serum (viable cell number)
Assay type: cell-based
Settings: 10 μM or 50 μM
Experimental: Bone marrow aspirates were taken from normal adult donors after an informed consent was signed. Bone marrow mesenchymal stem cells were prepared by a widely used technique as described earlier by others. Pittenger, M. F., Mackay, A. M., Beck, S. C., Jaiswal, R. K., Douglas, R., Mosca, J. D., Moorman, M. A., Simonetti, D. W., Craig, S. and Marshak, D. R., “Multilineage potential of adult human mesenchymal stem cells,” Science, 284, 143-147 (1999). […] When cells grew to about 80% confluence, they were suspended and harvested by incubating with a ready-made solution containing 0.25% trypsin and 1 mM EDTA (Sigma-Aldrich, St. Louis, Mo.) for 5 minutes at 37° C.; this cell suspension is designated as passage 1. […]
The total numbers of nucleated and viable cells were determined with a hemocytometer, using Turck's solution and trypan blue stain, respectively. […]
In the experiments reported in Table 7 and Table 8, human bone marrow-derived mesenchymal stem cells were split at 1:3 and then incubated for 24 hours in 10% fetal calf serum-containing medium to about 30-35% confluence. […] The data are expressed as mean values±std. dev. of 3 determinations.

SMILES: Cc1c(OCC(O)C[N+](C)(C)C)cc2c(=O)c3ccccc3sc2c1C.[Cl-] (stereo not shown) [CCcompound1, [3-(3,4-Dimethyl-9-oxo-9H-thioxanthen-2-yloxy)-2-hydroxypropyl]trimethyl-ammonium chloride]
- effect on the proliferation of stem cells: no direct stimulatory effect
